{"source": "the supplement of paper PMC10307832", "assay_in_all_cases": "relative viability (nuclei count vs DMSO), 5 days (fraction); higher = more cells survive", "key": {"[1]": {"system": "NCI-H2405", "in_short": "(§1)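 For relative viability, nuclei counts in treated wells were divided by those in vehicle wells. Lung cancer cell lines had been pin-tool dosed in 1536-well plates the day after seeding and cultured for 5 days, then fixed and stained in one step (final 0.05% Triton X-100, 1% formaldehyde, 1 ug/ml Hoechst) and imaged at 4×. Doses were one drug alone or a fixed anchor-drug dose plus five library-drug doses (not always all listed) in √10 steps, and values are duplicate-plate medians.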"}, "[2]": {"system": "NCI-H1734", "in_short": "as §1"}, "[3]": {"system": "NCI-H2170", "in_short": "as §1"}, "[4]": {"system": "NCI-H647", "in_short": "as §1"}, "[5]": {"system": "NCI-H441", "in_short": "as §1"}, "[6]": {"system": "LOU-NH91", "in_short": "as §1"}, "[7]": {"system": "H3255", "in_short": "as §1"}, "[8]": {"system": "201T", "in_short": "as §1"}, "[9]": {"system": "NCI-H1563", "in_short": "as §1"}, "[10]": {"system": "RERF-LC-KJ", "in_short": "as §1"}, "[11]": {"system": "NCI-H2085", "in_short": "as §1"}, "[12]": {"system": "COR-L23", "in_short": "as §1"}, "[13]": {"system": "NCI-H1793", "in_short": "as §1"}, "[14]": {"system": "NCI-H1993", "in_short": "as §1"}, "[15]": {"system": "NCI-H3122", "in_short": "as §1"}, "[16]": {"system": "NCI-H2023", "in_short": "as §1"}, "[17]": {"system": "NCI-H1650", "in_short": "as §1"}, "[18]": {"system": "PC-14", "in_short": "as §1"}, "[19]": {"system": "NCI-H2347", "in_short": "as §1"}, "[20]": {"system": "HCC-44", "in_short": "as §1"}, "[21]": {"system": "SW 900", "in_short": "as §1"}, "[22]": {"system": "NCI-H520", "in_short": "as §1"}, "[23]": {"system": "EPLC-272H", "in_short": "as §1"}}, "data": [{"smiles": "Oc1nc(-c2ccc(C(F)(F)F)cc2)nc2c1CSCC2", "note": "[XAV939] + CCNC(=O)c1noc(-c2cc(C(C)C)c(O)cc2O)c1-c1ccc(CN2CCOCC2)cc1 [Luminespib] (partner 0.01 µM)", "values": [{"measurement": "relative viability", "setting": "[1]; first compound 0.08 µM", "result": 0.657}, {"measurement": "relative viability", "setting": "[1]; first compound 0.253 µM", "result": 0.673}, {"measurement": "relative viability", "setting": "[1]; first compound 0.8 µM", "result": 0.599}, {"measurement": "relative viability", "setting": "[1]; first compound 2.53 µM", "result": 0.588}, {"measurement": "relative viability", "setting": "[2]; first compound 0.08 µM", "result": 0.223}, {"measurement": "relative viability", "setting": "[2]; first compound 0.253 µM", "result": 0.216}, {"measurement": "relative viability", "setting": "[2]; first compound 0.8 µM", "result": 0.185}, {"measurement": "relative viability", "setting": "[2]; first compound 2.53 µM", "result": 0.162}, {"measurement": "relative viability", "setting": "[3]; first compound 0.08 µM", "result": 0.764}, {"measurement": "relative viability", "setting": "[3]; first compound 0.253 µM", "result": 0.754}, {"measurement": "relative viability", "setting": "[3]; first compound 0.8 µM", "result": 0.704}, {"measurement": "relative viability", "setting": "[3]; first compound 2.53 µM", "result": 0.529}, {"measurement": "relative viability", "setting": "[4]; first compound 0.08 µM", "result": 0.252}, {"measurement": "relative viability", "setting": "[4]; first compound 0.253 µM", "result": 0.173}, {"measurement": "relative viability", "setting": "[4]; first compound 0.8 µM", "result": 0.156}, {"measurement": "relative viability", "setting": "[4]; first compound 2.53 µM", "result": 0.143}, {"measurement": "relative viability", "setting": "[5]; first compound 0.08 µM", "result": 0.374}, {"measurement": "relative viability", "setting": "[5]; first compound 0.253 µM", "result": 0.355}, {"measurement": "relative viability", "setting": "[5]; first compound 0.8 µM", "result": 0.245}, {"measurement": "relative viability", "setting": "[5]; first compound 2.53 µM", "result": 0.282}, {"measurement": "relative viability", "setting": "[6]; first compound 0.08 µM", "result": 0.322}, {"measurement": "relative viability", "setting": "[6]; first compound 0.253 µM", "result": 0.337}, {"measurement": "relative viability", "setting": "[6]; first compound 0.8 µM", "result": 0.432}, {"measurement": "relative viability", "setting": "[6]; first compound 2.53 µM", "result": 0.295}, {"measurement": "relative viability", "setting": "[7]; first compound 0.08 µM", "result": 1.09}, {"measurement": "relative viability", "setting": "[7]; first compound 0.253 µM", "result": 0.879}, {"measurement": "relative viability", "setting": "[7]; first compound 0.8 µM", "result": 0.804}, {"measurement": "relative viability", "setting": "[7]; first compound 2.53 µM", "result": 0.907}, {"measurement": "relative viability", "setting": "[8]; first compound 0.08 µM", "result": 1.02}, {"measurement": "relative viability", "setting": "[8]; first compound 0.253 µM", "result": 0.994}, {"measurement": "relative viability", "setting": "[8]; first compound 0.8 µM", "result": 1.05}, {"measurement": "relative viability", "setting": "[8]; first compound 2.53 µM", "result": 0.877}, {"measurement": "relative viability", "setting": "[9]; first compound 0.08 µM", "result": 0.617}, {"measurement": "relative viability", "setting": "[9]; first compound 0.253 µM", "result": 0.481}, {"measurement": "relative viability", "setting": "[9]; first compound 0.8 µM", "result": 0.505}, {"measurement": "relative viability", "setting": "[9]; first compound 2.53 µM", "result": 0.489}, {"measurement": "relative viability", "setting": "[10]; first compound 0.08 µM", "result": 1.21}, {"measurement": "relative viability", "setting": "[10]; first compound 0.253 µM", "result": 1.06}, {"measurement": "relative viability", "setting": "[10]; first compound 0.8 µM", "result": 1.07}, {"measurement": "relative viability", "setting": "[10]; first compound 2.53 µM", "result": 0.844}, {"measurement": "relative viability", "setting": "[11]; first compound 0.08 µM", "result": 0.446}, {"measurement": "relative viability", "setting": "[11]; first compound 0.253 µM", "result": 0.422}, {"measurement": "relative viability", "setting": "[11]; first compound 0.8 µM", "result": 0.431}, {"measurement": "relative viability", "setting": "[11]; first compound 2.53 µM", "result": 0.406}, {"measurement": "relative viability", "setting": "[12]; first compound 0.08 µM", "result": 0.929}, {"measurement": "relative viability", "setting": "[12]; first compound 0.253 µM", "result": 0.642}, {"measurement": "relative viability", "setting": "[12]; first compound 0.8 µM", "result": 0.615}, {"measurement": "relative viability", "setting": "[12]; first compound 2.53 µM", "result": 0.792}, {"measurement": "relative viability", "setting": "[13]; first compound 0.08 µM", "result": 0.223}, {"measurement": "relative viability", "setting": "[13]; first compound 0.253 µM", "result": 0.186}, {"measurement": "relative viability", "setting": "[13]; first compound 0.8 µM", "result": 0.176}, {"measurement": "relative viability", "setting": "[13]; first compound 2.53 µM", "result": 0.185}, {"measurement": "relative viability", "setting": "[14]; first compound 0.08 µM", "result": 0.779}, {"measurement": "relative viability", "setting": "[14]; first compound 0.253 µM", "result": 0.672}, {"measurement": "relative viability", "setting": "[14]; first compound 0.8 µM", "result": 0.748}, {"measurement": "relative viability", "setting": "[14]; first compound 2.53 µM", "result": 0.714}, {"measurement": "relative viability", "setting": "[15]; first compound 0.08 µM", "result": 0.0855}, {"measurement": "relative viability", "setting": "[15]; first compound 0.253 µM", "result": 0.0791}, {"measurement": "relative viability", "setting": "[15]; first compound 0.8 µM", "result": 0.0658}, {"measurement": "relative viability", "setting": "[15]; first compound 2.53 µM", "result": 0.0658}, {"measurement": "relative viability", "setting": "[16]; first compound 0.08 µM", "result": 0.888}, {"measurement": "relative viability", "setting": "[16]; first compound 0.253 µM", "result": 0.604}, {"measurement": "relative viability", "setting": "[16]; first compound 0.8 µM", "result": 0.589}, {"measurement": "relative viability", "setting": "[16]; first compound 2.53 µM", "result": 0.454}, {"measurement": "relative viability", "setting": "[17]; first compound 0.08 µM", "result": 0.196}, {"measurement": "relative viability", "setting": "[17]; first compound 0.253 µM", "result": 0.225}, {"measurement": "relative viability", "setting": "[17]; first compound 0.8 µM", "result": 0.177}, {"measurement": "relative viability", "setting": "[17]; first compound 2.53 µM", "result": 0.197}, {"measurement": "relative viability", "setting": "[18]; first compound 0.08 µM", "result": 0.163}, {"measurement": "relative viability", "setting": "[18]; first compound 0.253 µM", "result": 0.174}, {"measurement": "relative viability", "setting": "[18]; first compound 0.8 µM", "result": 0.164}, {"measurement": "relative viability", "setting": "[18]; first compound 2.53 µM", "result": 0.179}, {"measurement": "relative viability", "setting": "[19]; first compound 0.08 µM", "result": 0.419}, {"measurement": "relative viability", "setting": "[19]; first compound 2.53 µM", "result": 0.248}, {"measurement": "relative viability", "setting": "[20]; first compound 0.08 µM", "result": 1.61}, {"measurement": "relative viability", "setting": "[20]; first compound 0.253 µM", "result": 0.981}, {"measurement": "relative viability", "setting": "[20]; first compound 0.8 µM", "result": 1.12}, {"measurement": "relative viability", "setting": "[20]; first compound 2.53 µM", "result": 0.974}, {"measurement": "relative viability", "setting": "[21]; first compound 0.08 µM", "result": 0.171}, {"measurement": "relative viability", "setting": "[21]; first compound 0.253 µM", "result": 0.18}, {"measurement": "relative viability", "setting": "[21]; first compound 0.8 µM", "result": 0.183}, {"measurement": "relative viability", "setting": "[21]; first compound 2.53 µM", "result": 0.151}, {"measurement": "relative viability", "setting": "[22]; first compound 0.08 µM", "result": 0.233}, {"measurement": "relative viability", "setting": "[22]; first compound 0.253 µM", "result": 0.243}, {"measurement": "relative viability", "setting": "[22]; first compound 0.8 µM", "result": 0.201}, {"measurement": "relative viability", "setting": "[22]; first compound 2.53 µM", "result": 0.204}, {"measurement": "relative viability", "setting": "[23]; first compound 0.08 µM", "result": 0.954}, {"measurement": "relative viability", "setting": "[23]; first compound 0.253 µM", "result": 0.361}, {"measurement": "relative viability", "setting": "[23]; first compound 0.8 µM", "result": 0.317}, {"measurement": "relative viability", "setting": "[23]; first compound 2.53 µM", "result": 0.184}]}]}
